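Five concentrations, 48 hours, 96-well plates. GI50 = concentration required for 50% inhibition of growth. TGI: concentration producing complete growth inhibition.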
Experiments:
Experiment in all cases: NCI tumour cell line growth inhibition, 48 h
CAKI-1 renal = test system: CAKI-1 renal
HL-60(TB) leukemia = test system: HL-60(TB) leukemia
MOLT-4 leukemia = test system: MOLT-4 leukemia
SF-539 CNS = test system: SF-539 CNS
UACC-62 melanoma = test system: UACC-62 melanoma
SW-620 colon = test system: SW-620 colon
A549 NSCLC = test system: A549 NSCLC
M19-MEL melanoma = test system: M19-MEL melanoma
SN12C renal = test system: SN12C renal
SK-MEL-28 melanoma = test system: SK-MEL-28 melanoma
RXF 393 renal = test system: RXF 393 renal
ACHN renal = test system: ACHN renal
SK-MEL-5 melanoma = test system: SK-MEL-5 melanoma
OVCAR-4 ovarian = test system: OVCAR-4 ovarian
XF 498 CNS = test system: XF 498 CNS
RPMI-8226 leukemia = test system: RPMI-8226 leukemia
KM12 colon = test system: KM12 colon
U251 CNS = test system: U251 CNS
HCC-2998 colon = test system: HCC-2998 colon
HOP-92 NSCLC = test system: HOP-92 NSCLC
NCI-H226 lung = test system: NCI-H226 lung
SNB-75 CNS = test system: SNB-75 CNS
M14 melanoma = test system: M14 melanoma
SK-OV-3 ovarian = test system: SK-OV-3 ovarian
TK-10 renal = test system: TK-10 renal
CCRF-CEM leukemia = test system: CCRF-CEM leukemia
DMS 273 small cell lung = test system: DMS 273 small cell lung
HT29 colon = test system: HT29 colon
NCI-H522 lung = test system: NCI-H522 lung
UACC-257 melanoma = test system: UACC-257 melanoma
KM20L2 colon = test system: KM20L2 colon
NCI-H460 lung = test system: NCI-H460 lung
OVCAR-8 ovarian = test system: OVCAR-8 ovarian
A498 renal = test system: A498 renal
786-0 renal = test system: 786-0 renal
HOP-62 NSCLC = test system: HOP-62 NSCLC
SF-295 CNS = test system: SF-295 CNS
HCT-15 colon = test system: HCT-15 colon
OVCAR-5 ovarian = test system: OVCAR-5 ovarian
SNB-19 CNS = test system: SNB-19 CNS
SR leukemia = test system: SR leukemia
UO-31 renal = test system: UO-31 renal
EKVX NSCLC = test system: EKVX NSCLC
NCI-H23 lung = test system: NCI-H23 lung
K-562 leukemia = test system: K-562 leukemia
SK-MEL-2 melanoma = test system: SK-MEL-2 melanoma
DLD-1 colon = test system: DLD-1 colon
DMS 114 small cell lung = test system: DMS 114 small cell lung
HOP-18 NSCLC = test system: HOP-18 NSCLC
IGROV1 ovarian = test system: IGROV1 ovarian
SF-268 CNS = test system: SF-268 CNS
LXFL 529 NSCLC = test system: LXFL 529 NSCLC
OVCAR-3 ovarian = test system: OVCAR-3 ovarian
MALME-3M melanoma = test system: MALME-3M melanoma
LOX IMVI melanoma = test system: LOX IMVI melanoma
SNB-78 CNS = test system: SNB-78 CNS
COLO 205 colon = test system: COLO 205 colon

CN(C)c1nc(N(C)C)sc(=O)n1
TGI (CAKI-1 renal): > 100 µM
TGI (HL-60(TB) leukemia): > 100 µM
TGI (MOLT-4 leukemia): > 100 µM
TGI (SF-539 CNS): > 100 µM
TGI (UACC-62 melanoma): > 100 µM
TGI (SW-620 colon): > 100 µM
TGI (A549 NSCLC): > 100 µM
TGI (M19-MEL melanoma): > 100 µM
TGI (SN12C renal): > 100 µM
TGI (SK-MEL-28 melanoma): > 100 µM
TGI (RXF 393 renal): > 100 µM
TGI (ACHN renal): > 100 µM
TGI (SK-MEL-5 melanoma): > 100 µM
TGI (OVCAR-4 ovarian): > 100 µM
TGI (XF 498 CNS): > 100 µM
TGI (RPMI-8226 leukemia): > 100 µM
TGI (KM12 colon): > 100 µM
TGI (U251 CNS): > 100 µM
TGI (HCC-2998 colon): > 100 µM
TGI (HOP-92 NSCLC): > 100 µM
TGI (NCI-H226 lung): > 100 µM
TGI (SNB-75 CNS): > 100 µM
TGI (M14 melanoma): > 100 µM
TGI (SK-OV-3 ovarian): > 100 µM
TGI (TK-10 renal): > 100 µM
TGI (CCRF-CEM leukemia): > 100 µM
TGI (DMS 273 small cell lung): > 100 µM
TGI (HT29 colon): > 100 µM
TGI (NCI-H522 lung): > 100 µM
TGI (UACC-257 melanoma): > 100 µM
TGI (KM20L2 colon): > 100 µM
TGI (NCI-H460 lung): > 100 µM
TGI (OVCAR-8 ovarian): > 100 µM
TGI (A498 renal): > 100 µM
TGI (786-0 renal): > 100 µM
TGI (HOP-62 NSCLC): > 100 µM
TGI (SF-295 CNS): > 100 µM
TGI (HCT-15 colon): > 100 µM
TGI (OVCAR-5 ovarian): > 100 µM
TGI (SNB-19 CNS): > 100 µM
TGI (SR leukemia): > 100 µM
TGI (UO-31 renal): > 100 µM
TGI (EKVX NSCLC): > 100 µM
TGI (NCI-H23 lung): > 100 µM
TGI (K-562 leukemia): > 100 µM
TGI (SK-MEL-2 melanoma): > 100 µM
TGI (DLD-1 colon): > 100 µM
TGI (DMS 114 small cell lung): > 100 µM
TGI (HOP-18 NSCLC): > 100 µM
TGI (IGROV1 ovarian): > 100 µM
TGI (SF-268 CNS): > 100 µM
TGI (LXFL 529 NSCLC): > 100 µM

O=C1OC(c2cccc(C(F)(F)F)c2)(c2cccc(C(F)(F)F)c2)c2ccc3ccccc3c21
TGI (CAKI-1 renal): > 100 µM
TGI (HL-60(TB) leukemia): > 100 µM
GI50 (MOLT-4 leukemia): 7.21 µM
TGI (MOLT-4 leukemia): > 100 µM
TGI (SF-539 CNS): > 100 µM
GI50 (UACC-62 melanoma): > 100 µM
TGI (UACC-62 melanoma): > 100 µM
GI50 (SW-620 colon): > 100 µM
TGI (SW-620 colon): > 100 µM
GI50 (A549 NSCLC): > 100 µM
TGI (A549 NSCLC): > 100 µM
GI50 (SN12C renal): > 100 µM
TGI (SN12C renal): > 100 µM
GI50 (SK-MEL-28 melanoma): > 100 µM
TGI (SK-MEL-28 melanoma): > 100 µM
TGI (RXF 393 renal): > 100 µM
TGI (ACHN renal): > 100 µM
GI50 (SK-MEL-5 melanoma): 5.26 µM
TGI (SK-MEL-5 melanoma): > 100 µM
GI50 (OVCAR-4 ovarian): > 100 µM
TGI (OVCAR-4 ovarian): > 100 µM
TGI (XF 498 CNS): > 100 µM
GI50 (RPMI-8226 leukemia): 7.56 µM
TGI (RPMI-8226 leukemia): > 100 µM
TGI (KM12 colon): > 100 µM
TGI (U251 CNS): > 100 µM
GI50 (HCC-2998 colon): > 100 µM
TGI (HCC-2998 colon): > 100 µM
GI50 (OVCAR-3 ovarian): 22.4 µM
TGI (OVCAR-3 ovarian): > 100 µM
TGI (HOP-92 NSCLC): > 100 µM
GI50 (MALME-3M melanoma): > 100 µM
TGI (MALME-3M melanoma): > 100 µM
TGI (NCI-H226 lung): > 100 µM
GI50 (SNB-75 CNS): > 100 µM
TGI (SNB-75 CNS): > 100 µM
GI50 (M14 melanoma): > 100 µM
TGI (M14 melanoma): > 100 µM
GI50 (SK-OV-3 ovarian): > 100 µM
TGI (SK-OV-3 ovarian): > 100 µM
GI50 (TK-10 renal): > 100 µM
TGI (TK-10 renal): > 100 µM
GI50 (CCRF-CEM leukemia): 9.13 µM
TGI (CCRF-CEM leukemia): > 100 µM
GI50 (DMS 273 small cell lung): > 100 µM
TGI (DMS 273 small cell lung): > 100 µM
TGI (UACC-257 melanoma): > 100 µM
GI50 (LOX IMVI melanoma): > 100 µM
TGI (LOX IMVI melanoma): > 100 µM
TGI (KM20L2 colon): > 100 µM
GI50 (OVCAR-8 ovarian): > 100 µM
TGI (OVCAR-8 ovarian): > 100 µM
GI50 (A498 renal): > 100 µM
TGI (A498 renal): > 100 µM
GI50 (786-0 renal): > 100 µM
TGI (786-0 renal): > 100 µM
GI50 (HOP-62 NSCLC): > 100 µM
TGI (HOP-62 NSCLC): > 100 µM
TGI (SF-295 CNS): > 100 µM
TGI (HCT-15 colon): > 100 µM
GI50 (OVCAR-5 ovarian): > 100 µM
TGI (OVCAR-5 ovarian): > 100 µM
TGI (SNB-19 CNS): > 100 µM
GI50 (UO-31 renal): > 100 µM
TGI (UO-31 renal): > 100 µM
GI50 (SNB-78 CNS): > 100 µM
TGI (SNB-78 CNS): > 100 µM
GI50 (EKVX NSCLC): > 100 µM
TGI (EKVX NSCLC): > 100 µM
GI50 (NCI-H23 lung): 3.92 µM
TGI (NCI-H23 lung): > 100 µM
GI50 (K-562 leukemia): 4.29 µM
TGI (K-562 leukemia): > 100 µM
GI50 (SK-MEL-2 melanoma): > 100 µM
TGI (SK-MEL-2 melanoma): > 100 µM
GI50 (DLD-1 colon): > 100 µM
TGI (DLD-1 colon): > 100 µM
GI50 (DMS 114 small cell lung): 4.44 µM
TGI (DMS 114 small cell lung): > 100 µM
GI50 (HOP-18 NSCLC): > 100 µM
TGI (HOP-18 NSCLC): > 100 µM
GI50 (IGROV1 ovarian): > 100 µM
TGI (IGROV1 ovarian): > 100 µM
TGI (SF-268 CNS): > 100 µM
GI50 (COLO 205 colon): > 100 µM
TGI (COLO 205 colon): > 100 µM
GI50 (LXFL 529 NSCLC): 7.26 µM
TGI (LXFL 529 NSCLC): > 100 µM
